Data on 14 compounds can be found in PubChem BioAssay (NCI).

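These data come from cells grown in 96-well plates and exposed to compound for 48 hours at five concentrations. Abbreviation: GI50, concentration required for 50% inhibition of growth. TGI is the concentration that stops growth completely.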

Some test systems named below: NCI-H460 lung; HCC-2998 colon; OVCAR-5 ovarian; SNB-19 CNS; SK-OV-3 ovarian; U251 CNS; KM12 colon; HOP-92 NSCLC; HOP-62 NSCLC.
Common to all, as to experiment: NCI anticancer screen, dose series, 48 h

Regarding `CN(C)CCNC(=O)c1cccc2c1nc(-c1ccc(F)cc1)c1ccccc12`, the TGI came out at 12 µM in the test on NCI-H460 lung; 16.7 µM in the test with HCC-2998 colon; 16.7 µM with OVCAR-5 ovarian; 20.2 µM in the test with SNB-19 CNS; 21.1 µM in the test on SK-OV-3 ovarian; 16.5 µM with U251 CNS. Moreover, the TGI with KM12 colon was found to be 19.3 µM; with HOP-92 NSCLC it was 9.89 µM; with HOP-62 NSCLC it was 12.9 µM.
On to `CC(C)(C)c1cc(CCC(=O)Nc2ccc(Cl)cc2)[nH]c(=S)n1`, for which the TGI in the test with NCI-H460 lung, in the test on HCC-2998 colon, with OVCAR-5 ovarian, in the test with SNB-19 CNS, in the test with SK-OV-3 ovarian and in the test with U251 CNS was over 100 µM throughout. The TGI with KM12 colon and with HOP-62 NSCLC was over 100 µM throughout.
`COc1cc(/C=C/C(=O)c2cccc(-n3cc(-c4cc(OC)c(OC)c(OC)c4)[nH]c3=O)c2)cc(OC)c1OC`: the GI50 in the test with NCI-H460 lung was 1.73 µM; with HCC-2998 colon it was 1.92 µM; with OVCAR-5 ovarian, 4.38 µM; in the test on SNB-19 CNS it was 4.07 µM; in the test on SK-OV-3 ovarian it was 5.12 µM; in the test on U251 CNS, 1.23 µM. Also, the GI50 in the test on KM12 colon is 1.12 µM; in the test with HOP-62 NSCLC, 3.08 µM. For the same compound, the TGI is 3.98 µM in the test with NCI-H460 lung; 3.43 µM with HCC-2998 colon; 13.4 µM in the test with OVCAR-5 ovarian; 15.8 µM in the test with SNB-19 CNS; over 100 µM with SK-OV-3 ovarian; 3.71 µM in the test with U251 CNS. Further, the TGI is 2.46 µM in the test with KM12 colon and 8.74 µM in the test on HOP-62 NSCLC.
For `COc1cccc(/C=C/C(=O)c2ccc3cc(OC)ccc3c2)c1`, the GI50 was 25.2 µM in the test on NCI-H460 lung; 11.1 µM with OVCAR-5 ovarian; 14 µM with SNB-19 CNS; 10.7 µM with SK-OV-3 ovarian; 14 µM with U251 CNS; 9.91 µM in the test with KM12 colon. Moreover, the GI50 is 11.1 µM in the test with HOP-92 NSCLC and 17.3 µM with HOP-62 NSCLC. The TGI was over 50 µM in the test with NCI-H460 lung; 25.5 µM in the test with OVCAR-5 ovarian; 47.3 µM in the test on SNB-19 CNS; 22.7 µM in the test with SK-OV-3 ovarian; 42 µM with U251 CNS; 22.9 µM with KM12 colon. The TGI was 41.3 µM in the test on HOP-92 NSCLC and over 50 µM with HOP-62 NSCLC.
As to `Cc1ccc(NC(=O)CCCC(=O)CC(=O)c2ccc(Br)cc2)cc1`, the TGI in the test with NCI-H460 lung, with HCC-2998 colon, in the test with OVCAR-5 ovarian, in the test on SNB-19 CNS, with SK-OV-3 ovarian and with U251 CNS was over 100 µM in each case. In addition, the TGI in the test on KM12 colon, with HOP-92 NSCLC and with HOP-62 NSCLC was over 100 µM in each case.
As to `CC(=O)C1CCN(c2ccccc2)C1` (stereo not drawn), the TGI in the test with NCI-H460 lung, in the test with OVCAR-5 ovarian, with SNB-19 CNS, in the test on SK-OV-3 ovarian, with U251 CNS and in the test with KM12 colon was over 100 µM in each case. Besides, the TGI in the test with HOP-92 NSCLC and in the test with HOP-62 NSCLC was over 100 µM each time.
Take `CCOC(=O)C(C)(NC(=O)c1ccc(NCc2ccc3nc(NC(=O)c4ccccc4)nc(NC(=O)c4ccccc4)c3c2)cc1)C(=O)OCC`: the TGI is 32.5 µM in the test on NCI-H460 lung; 69.7 µM with HCC-2998 colon; over 100 µM in the test on OVCAR-5 ovarian; 27.4 µM in the test with SK-OV-3 ovarian; 21 µM with U251 CNS; 18.9 µM in the test on HOP-92 NSCLC. Also, the TGI in the test with HOP-62 NSCLC was 31.2 µM.
Take `COC1C2C[C@@H](O)CCC2C(C(=O)OCCl)C[C@H]1O` (stereo partly drawn): the TGI with NCI-H460 lung, in the test with HCC-2998 colon, in the test with SNB-19 CNS, in the test on SK-OV-3 ovarian, with U251 CNS and in the test with KM12 colon was over 100 µM each time. In the test with HOP-62 NSCLC, this compound showed a TGI of over 100 µM.
Turning to `O=C(O/N=C1\CCCC\C1=C/c1ccccc1)c1ccc([N+](=O)[O-])cc1`, the TGI in the test with NCI-H460 lung, in the test with HCC-2998 colon, in the test on OVCAR-5 ovarian, in the test with SK-OV-3 ovarian, with U251 CNS and with HOP-92 NSCLC was over 100 µM each time. In addition, the TGI in the test on HOP-62 NSCLC is over 100 µM.
As for `Cn1c(CBr)nc2c1C(=O)c1nc(CBr)[nH]c(=O)c1C2=O`, the TGI in the test on NCI-H460 lung, in the test with SK-OV-3 ovarian, with U251 CNS and in the test on HOP-92 NSCLC was over 100 µM in each case.
Consider `CCCNC(=O)Nc1c([N+](=O)[O-])cc(C(F)(F)F)cc1[N+](=O)[O-]`, for which the TGI with NCI-H460 lung, in the test with OVCAR-5 ovarian, in the test on SNB-19 CNS, in the test with SK-OV-3 ovarian, in the test with U251 CNS and in the test with KM12 colon was over 100 µM in each case. The TGI with HOP-92 NSCLC and with HOP-62 NSCLC was over 100 µM in each case.
As to `CC(C)(CN1C(=O)C(Cl)=C(Cl)C1=O)CN1C(=O)C(Cl)=C(Cl)C1=O`, the TGI is over 77.3 µM in the test with NCI-H460 lung; 39.4 µM in the test with HCC-2998 colon; 42.7 µM in the test with OVCAR-5 ovarian; 55 µM in the test on SNB-19 CNS; over 58.9 µM in the test with SK-OV-3 ovarian; 38.7 µM with U251 CNS. The TGI turned out to be 57.4 µM in the test on KM12 colon, 18.1 µM with HOP-92 NSCLC and 45.6 µM in the test with HOP-62 NSCLC.
As for `O=S1(=O)N2CN3CN(C2)CN1C3`, the TGI in the test on NCI-H460 lung amounted to 272 µM; in the test on HCC-2998 colon, 571 µM; in the test on OVCAR-5 ovarian it was 362 µM; in the test on SNB-19 CNS, 856 µM; in the test on SK-OV-3 ovarian, 868 µM; in the test on KM12 colon, 306 µM. Besides, in the test with HOP-62 NSCLC, the TGI amounted to 624 µM.
Regarding `C[C@H]1CC[P+](Cc2ccccc2)(c2ccccc2)C1` (stereo partly drawn), the TGI in the test on NCI-H460 lung, in the test on HCC-2998 colon, in the test with OVCAR-5 ovarian, in the test with SNB-19 CNS, in the test with SK-OV-3 ovarian and in the test on U251 CNS was over 100 µM in each case. For the same compound, the TGI in the test with KM12 colon and in the test with HOP-62 NSCLC was over 100 µM each time.
